In article PMC12741935 (Alzheimer's & Dementia, 2025):

Test system: brain proteome
Experiment: Brain proteomics (DIA LC-MS/MS) after chronic NVS-PAK1-1 100 mg/kg BID PO vs vehicle in 5xFAD mice
Type: in vivo
Conditions: for NES (gene set enrichment), NVS-PAK1-1 vs vehicle: Young Female
Experimental: A total of 91 brain samples were prepared from mice in this study and analyzed by mass spectrometry proteomics. One third of the mixed‐chopped left hemisphere tissue was homogenized in 8 M urea lysis buffer (8 M urea, 10 mM Tris, 100 mM NaH2PO4, pH 8.5) with HALT protease and phosphatase inhibitor cocktail (Thermo Fisher) and sonicated for three cycles consisting of 5 seconds of active sonication at 30% amplitude, followed by 15 seconds on ice. Samples were then centrifuged for 5 minutes at 15,000 g and the supernatant was transferred to a new tube. Protein concentration was determined by bicinchoninic acid (BCA) assay (Pierce). For protein digestion, 200 µg of each sample was aliquoted and volumes normalized with additional lysis buffer. Samples were reduced with 5 mM DTT at room temperature for 30 minutes, followed by 10 mM iodoacetamide (IAA) alkylation in the dark for another 30 minutes. Lysyl endopeptidase (Wako) at 1:25 (w/w) was added, and digestion allowed to proceed overnight. Samples were then 7‐fold diluted with 50 mM ammonium bicarbonate. Trypsin (Promega) was then added at 1:25 (w/w) and digestion proceeded overnight. The peptide solutions were acidified to a final concentration of 1% (vol/vol) FA and 0.1% (vol/vol) TFA and desalted with a 10 mg HLB column (Oasis). Each HLB column was first rinsed with 1 mL of methanol, washed with 1 mL 50% (vol/vol) acetonitrile (ACN), and equilibrated with 2 × 1 mL 0.1% (vol/vol) TFA. The samples were then loaded onto the column and washed with 2 × 1 mL 0.1% (vol/vol) TFA. Elution was performed with 0.5 mL 50% (vol/vol) ACN. Samples were split into 50 µL and 400 µL aliquots. Residuals from all samples were combined to create a global internal standard pool.
Samples were resuspended in an equal volume of loading buffer (0.1% FA, 0.03% TFA, 1% ACN) and analyzed by LC‐MS/MS. Peptide eluents (1 µg) were separated on a Water's CSH (15 cm × 150 µM internal diameter [ID] with 1.7 µm CSH resin) by a Dionex Ultimate 3000 RSLCnano (Thermo Fisher). Buffer A was water with 0.1% (vol/vol) formic acid, and buffer B was 80% (vol/vol) acetonitrile in water with 0.1% (vol/vol) FA. Elution was performed over a 30 minute gradient. The gradient was from 1% to 99% solvent B. Peptides were monitored on an Orbitrap Fusion Lumos mass spectrometer (Thermo Fisher). Each cycle consisted of one full scan (MS1) performed with an m/z range of 380 to 985 at a 60,000 resolution at standard settings and 30 data independent scans (DIA) in 1.5 seconds. The higher energy collision‐induced dissociation (HCD) tandem scans were collected at 30% collision energy with an isolation of 10 m/z, a resolution of 15,000, an AGC setting of 200% normalized AGC target, and a maximum injection time set to 40 ms.
Raw data files were converted to mzML format for downstream processing using ThermoRawFilerParser v.1.4.4.[30] The data were processed using Data‐Independent Acquisition by Neural Network (DIA‐NN) v.1.9.1.[31] A spectral library was generated using all canonical mouse proteins from UniProt and SwissProt (accessed September 24, 2024) and contaminants from the Common Repository of Adventitious Proteins (cRAP) database [https://www.thegpm.org/crap/]; these contaminant proteins were excluded from normalization and downstream analysis. DIA‐NN was run using parameters specified as follows: precursor charge was set from 1 to 4 and precursor m/z was set from 200 to 5000. Enzyme digestion was set to strict trypsin with 1 allowed missed cleavage, peptide length was set from 7 to 50, and peptide m/z was set from 150 to 3000. The maximum number of variable modifications was set to 3 and methionine oxidation was allowed as a variable modification. Cysteine carbamidomethylation was allowed as a fixed modification. MS1 and MS2 mass accuracy (in ppm) were set using autodetect and the scan window was set using autodetect. The false discovery rate (FDR) threshold was set to 1%. […]

## CC(C)NC(=O)N1CC[C@H](NC2=Nc3cc(F)ccc3N(CC(F)F)c3ccc(Cl)cc32)C1 [NVS‐PAK1‐1, (S)‐3‐([2‐chloro‐5‐(2,2‐difluoroethyl)‐8‐fluoro‐5H‐dibenzo[b,e][1,4]diazepin‐11‐yl]amino)‐N‐isopropylpyrrolidine‐1‐carboxamide]
ATP8, Aged M 5xFAD brain
  logFC, FAD5X_A_tx vs FAD5X_B_veh: -0.1292
Acat2, Young F 5xFAD brain
  logFC_NVS.PAK1.1_vs_vehicle: -0.07095
Acly, Young F 5xFAD brain
  logFC_NVS.PAK1.1_vs_vehicle: -0.0659
Acly, Young M 5xFAD brain
  logFC_NVS.PAK1.1_vs_vehicle: -0.07659
Agk, Young F 5xFAD brain
  logFC_NVS.PAK1.1_vs_vehicle: 0.08371
Agl, Young F 5xFAD brain
  logFC_NVS.PAK1.1_vs_vehicle: -0.0869
Aldh1l1, Young F 5xFAD brain
  logFC_NVS.PAK1.1_vs_vehicle: -0.1253
Anxa6, Young M 5xFAD brain
  logFC_NVS.PAK1.1_vs_vehicle: -0.118
App, Young F 5xFAD brain
  logFC_NVS.PAK1.1_vs_vehicle: -0.2576
Armcx5, Young M 5xFAD brain
  logFC_NVS.PAK1.1_vs_vehicle: 0.3268
Atl2, Aged F 5xFAD brain
  logFC_NVS.PAK1.1_vs_vehicle: -0.08745
Atp2b4, Young M 5xFAD brain
  logFC_NVS.PAK1.1_vs_vehicle: 0.1099
Atp5if1, Aged F 5xFAD brain
  logFC_NVS.PAK1.1_vs_vehicle: -0.5225
Calr, Young F 5xFAD brain
  logFC_NVS.PAK1.1_vs_vehicle: -0.07235
Cep170b, Young M 5xFAD brain
  logFC_NVS.PAK1.1_vs_vehicle: 0.1293
Cfap61, Young F 5xFAD brain
  logFC_NVS.PAK1.1_vs_vehicle: -0.4846
Cfl2, Young F 5xFAD brain
  logFC_NVS.PAK1.1_vs_vehicle: 0.1353
Chordc1, Young F 5xFAD brain
  logFC_NVS.PAK1.1_vs_vehicle: -0.1408
Ciapin1, Young M 5xFAD brain
  logFC_NVS.PAK1.1_vs_vehicle: -0.1789
Cops5, Aged M 5xFAD brain
  logFC_NVS.PAK1.1_vs_vehicle: 0.1116
Cox7a2, Aged F 5xFAD brain
  logFC_NVS.PAK1.1_vs_vehicle: -0.07809
Dctn3, Young F 5xFAD brain
  logFC_NVS.PAK1.1_vs_vehicle: -0.07573
Echdc1, Young F 5xFAD brain
  logFC_NVS.PAK1.1_vs_vehicle: -0.211
Eef1b, Young F 5xFAD brain
  logFC_NVS.PAK1.1_vs_vehicle: -0.1102
Eef2, Young F 5xFAD brain
  logFC_NVS.PAK1.1_vs_vehicle: -0.07944
Ehd3, Aged M 5xFAD brain
  logFC_NVS.PAK1.1_vs_vehicle: 0.04696
Eif1, Young F 5xFAD brain
  logFC_NVS.PAK1.1_vs_vehicle: -0.1062
Elfn2, Aged M 5xFAD brain
  logFC_NVS.PAK1.1_vs_vehicle: -0.27
Fasn, Young F 5xFAD brain
  logFC_NVS.PAK1.1_vs_vehicle: -0.08056
Fdps.1, Young F 5xFAD brain
  logFC_NVS.PAK1.1_vs_vehicle: -0.1222
Fn3krp, Aged M 5xFAD brain
  logFC_NVS.PAK1.1_vs_vehicle: 0.1203
GO:0005740 mitochondrial envelope
  NES (gene set enrichment), NVS-PAK1-1 vs vehicle: 2.24
GO:0005743 mitochondrial inner membrane
  NES (gene set enrichment), NVS-PAK1-1 vs vehicle: 2.303
GO:0019866 organelle inner membrane
  NES (gene set enrichment), NVS-PAK1-1 vs vehicle: 2.289
GO:0031966 mitochondrial membrane
  NES (gene set enrichment), NVS-PAK1-1 vs vehicle: 2.233
Gap43, Young F 5xFAD brain
  logFC_NVS.PAK1.1_vs_vehicle: 0.1885
Gnb1.1, Aged F 5xFAD brain
  logFC_NVS.PAK1.1_vs_vehicle: -0.6461
Gng2, Young M 5xFAD brain
  logFC_NVS.PAK1.1_vs_vehicle: 0.102
HC;Ighg2b, Aged M 5xFAD brain
  logFC, FAD5X_A_tx vs FAD5X_B_veh: 0.3576
Hnrnpf, Aged F 5xFAD brain
  logFC_NVS.PAK1.1_vs_vehicle: -0.0585
Hprt1, Young F 5xFAD brain
  logFC_NVS.PAK1.1_vs_vehicle: 0.09623
Hsp90ab1, Young F 5xFAD brain
  logFC_NVS.PAK1.1_vs_vehicle: -0.08556
Hsp90b1, Young F 5xFAD brain
  logFC_NVS.PAK1.1_vs_vehicle: -0.1385
Hspa8.1, Young F 5xFAD brain
  logFC_NVS.PAK1.1_vs_vehicle: -0.05148
Hsph1, Young F 5xFAD brain
  logFC_NVS.PAK1.1_vs_vehicle: -0.0893
Idh1, Young F 5xFAD brain
  logFC_NVS.PAK1.1_vs_vehicle: -0.08685
Idi1, Young F 5xFAD brain
  logFC_NVS.PAK1.1_vs_vehicle: -0.1582
Kctd16, Young M 5xFAD brain
  logFC_NVS.PAK1.1_vs_vehicle: 0.1263
Klc1, Young F 5xFAD brain
  logFC_NVS.PAK1.1_vs_vehicle: -0.06729
Lcmt1, Young F 5xFAD brain
  logFC_NVS.PAK1.1_vs_vehicle: -0.08416
Lcp1, Young F 5xFAD brain
  logFC_NVS.PAK1.1_vs_vehicle: -0.2692
Lrfn4, Aged F 5xFAD brain
  logFC_NVS.PAK1.1_vs_vehicle: 0.3404
Ly6h, Young M 5xFAD brain
  logFC_NVS.PAK1.1_vs_vehicle: 0.08528
Map1lc3a, Young M 5xFAD brain
  logFC_NVS.PAK1.1_vs_vehicle: 0.1055
Map7d2, Aged M 5xFAD brain
  logFC_NVS.PAK1.1_vs_vehicle: 0.1103
Mark4, Young F 5xFAD brain
  logFC_NVS.PAK1.1_vs_vehicle: 0.2384
Mib2, Aged M 5xFAD brain
  logFC_NVS.PAK1.1_vs_vehicle: -0.4263
Mipep, Aged F 5xFAD brain
  logFC_NVS.PAK1.1_vs_vehicle: 1.596
Myh10, Aged F 5xFAD brain
  logFC_NVS.PAK1.1_vs_vehicle: -1.404
Mylk, Aged M 5xFAD brain
  logFC_NVS.PAK1.1_vs_vehicle: -1.455
Nck2, Aged M 5xFAD brain
  logFC_NVS.PAK1.1_vs_vehicle: 0.1477
Nherf1, Young F 5xFAD brain
  logFC_NVS.PAK1.1_vs_vehicle: -0.1106
Nmd3, Young F 5xFAD brain
  logFC_NVS.PAK1.1_vs_vehicle: -0.95
Nmt1, Young F 5xFAD brain
  logFC_NVS.PAK1.1_vs_vehicle: -0.1011
Nomo1, Young F 5xFAD brain
  logFC_NVS.PAK1.1_vs_vehicle: -0.1733
Nrdc, Aged M 5xFAD brain
  logFC_NVS.PAK1.1_vs_vehicle: -0.1746
Ntm, Young M 5xFAD brain
  logFC_NVS.PAK1.1_vs_vehicle: 0.1007
Pkm, Aged M 5xFAD brain
  logFC_NVS.PAK1.1_vs_vehicle: -0.04674
Plpp3, Young F 5xFAD brain
  logFC_NVS.PAK1.1_vs_vehicle: -0.1143
Plxna4, Young F 5xFAD brain
  logFC_NVS.PAK1.1_vs_vehicle: 0.1065
Pnpo, Young F 5xFAD brain
  logFC_NVS.PAK1.1_vs_vehicle: 0.2
Ppp1r21, Young F 5xFAD brain
  logFC_NVS.PAK1.1_vs_vehicle: -0.1088
Ptgds, Young F 5xFAD brain
  logFC_NVS.PAK1.1_vs_vehicle: -0.128
RTRAF, Young F 5xFAD brain
  logFC_NVS.PAK1.1_vs_vehicle: -0.06356
Rab27b, Young F 5xFAD brain
  logFC_NVS.PAK1.1_vs_vehicle: 0.1779
Rab33a, Aged M 5xFAD brain
  logFC_NVS.PAK1.1_vs_vehicle: -0.2639
Rap2a, Young F 5xFAD brain
  logFC_NVS.PAK1.1_vs_vehicle: 0.09042
Rasgef1a, Aged M 5xFAD brain
  logFC_NVS.PAK1.1_vs_vehicle: 0.8766
Rbm4b, Aged M 5xFAD brain
  logFC_NVS.PAK1.1_vs_vehicle: -0.3664
Robo2, Young M 5xFAD brain
  logFC_NVS.PAK1.1_vs_vehicle: 0.2982
Rock2, Aged F 5xFAD brain
  logFC_NVS.PAK1.1_vs_vehicle: 0.0515
Rpl34, Young F 5xFAD brain
  logFC_NVS.PAK1.1_vs_vehicle: -0.09945
Rps3, Young F 5xFAD brain
  logFC_NVS.PAK1.1_vs_vehicle: -0.04356
S100a1, Young F 5xFAD brain
  logFC_NVS.PAK1.1_vs_vehicle: -0.119
Sec14l2, Young F 5xFAD brain
  logFC_NVS.PAK1.1_vs_vehicle: -0.1884
Senp3, Young M 5xFAD brain
  logFC_NVS.PAK1.1_vs_vehicle: -0.3344
Septin2, Young F 5xFAD brain
  logFC_NVS.PAK1.1_vs_vehicle: -0.1026
Septin3, Young F 5xFAD brain
  logFC_NVS.PAK1.1_vs_vehicle: 0.07371
Serpinb6, Young F 5xFAD brain
  logFC_NVS.PAK1.1_vs_vehicle: -0.1362
Sgip1, Young M 5xFAD brain
  logFC_NVS.PAK1.1_vs_vehicle: 0.06159
Snw1, Aged F 5xFAD brain
  logFC_NVS.PAK1.1_vs_vehicle: -0.2022
Spag9, Aged F 5xFAD brain
  logFC_NVS.PAK1.1_vs_vehicle: -0.08904
Stom, Aged F 5xFAD brain
  logFC_NVS.PAK1.1_vs_vehicle: -0.4369
Stom, Young M 5xFAD brain
  logFC_NVS.PAK1.1_vs_vehicle: -0.67
Stxbp5, Aged M 5xFAD brain
  logFC_NVS.PAK1.1_vs_vehicle: -0.08024
Syngr1, Young M 5xFAD brain
  logFC_NVS.PAK1.1_vs_vehicle: 0.07489
Sypl1, Aged M 5xFAD brain
  logFC_NVS.PAK1.1_vs_vehicle: 0.2577
Tbc1d24, Young F 5xFAD brain
  logFC_NVS.PAK1.1_vs_vehicle: 0.08048
Tkfc, Aged M 5xFAD brain
  logFC_NVS.PAK1.1_vs_vehicle: -0.1852
Tom1l2, Aged M 5xFAD brain
  logFC_NVS.PAK1.1_vs_vehicle: 0.07172
Txndc16, Young M 5xFAD brain
  logFC_NVS.PAK1.1_vs_vehicle: -1.405
Usp54, Aged M 5xFAD brain
  logFC_NVS.PAK1.1_vs_vehicle: 2.652
Vasp, Young F 5xFAD brain
  logFC_NVS.PAK1.1_vs_vehicle: 0.6308
Vps33b, Aged M 5xFAD brain
  logFC_NVS.PAK1.1_vs_vehicle: -0.1328
Wasf3, Young M 5xFAD brain
  logFC_NVS.PAK1.1_vs_vehicle: 0.12
Zfp967;Zfp968, Young F 5xFAD brain
  logFC_NVS.PAK1.1_vs_vehicle: -1.398
